Reference: US10730878B2, “Fused quinoline compounds as PI3K/mTOR inhibitors” (ADVENCHEN PHARMACEUTICALS, LLC, priority 2015, dated 2020)

Target: T1, mTor (Homo sapiens, UniProt P42345)
T1 construct: purchased Millipore/Merck KGA of Europe (panel screening service)
Assay: mTor kinase inhibition, % activity at 0.03 μM (kinases panel screening)
Type: biochemical
Details: 0.03 μM compound
Description: In vitro kinase inhibition activities included Pi3k and mTor activities can be tested with Millipore/Merck KGA of Europe in their kinases panel screening. Animal antitumor activity testing can be conducted by various cancer xenograft models for a compound of formula I. […]

Compound	mTor % activity @0.03 μM [%]
Cc1nnc2n(-c3ccc(C(C)(C)C#N)cc3)c3c4cc(-c5ccc(N)nc5)ccc4ncc3n12 [5-pyridin-2-amine; CH3; CH3, CH3; CN]	64
C#CC(C)(C)c1ccc(-n2c3c4cc(-c5ccc(OC)nc5)ccc4ncc3n3c(CC)nnc23)cc1 [12-ethyl-4-(6-methoxypyridin-3-yl)-16-[4-(2-methylbut-3-yn-2-yl)phenyl]-8,11,13,14,16-pentaazatetracyclo[8.6.0.0^2,^7.0^11,^1^5]hexadeca-1(10),2,4,6,8,12,14-heptaene]	69
5-[16-(4-tert-butylphenyl)-12-ethyl-8,11,13,14,16-pentaazatetracyclo[8.6.0.0^2,^7.0^11,^1^5]hexadeca-1(10),2,4,6,8,12,14-heptaen-4-yl]-N-methylpyridin-2-amine	51
CCc1nnc2n(-c3ccc(C(C)(C)C#N)cc3)c3c4cc(-c5cnc6[nH]ccc6c5)ccc4ncc3n12 [2-[4-(12-ethyl-4-{(1H-pyrrolo[2,3-b]pyridin-5-yl}-8,11,13,14,16-pentaazatetracyclo-[8.6.0.0^2,^7.0^11,^1^5]hexadec-1(10),2,4,6,8,12,14-heptaen-16-yl)phenyl]-2-methylpropanenitrile]	29
N-(5-{16-[4-(1-cyano-1-methylethyl)phenyl]-8,11,13,14,16-pentaazatetracyclo[8.6.0.0^2,^7.0^11,^1^5]-hexadeca-1(10), 2,4,6,8,12,14-heptaen-4-yl)}pyridin-2-yl)-2-(morpholin-4-yl)acetamide	72
CC(=O)Nc1ccc(-c2ccc3ncc4c(c3c2)n(-c2ccc(C(C)(C)C#N)cc2)c2nncn42)cn1 [N-(5-{16-[4-(1-cyano-1-methylethyl)phenyl]-8,11,13,14,16-pentaazatetracyclo-[8.6.0.0^2,^7.0^11,^1^5]hexadeca-1(10),2,4,6,8,12,14-heptaen-4-yl}pyridin-2-yl)acetamide]	−10
Cc1nnc2n(-c3ccc(C(C)(C)C)cc3)c3c4cc(-c5cnc6[nH]ccc6c5)ccc4ncc3n12 [16-(4-tert-butylphenyl)-12-methyl-4-{1H-pyrrolo[2,3-b]pyridin-5-yl}-8,11,13,14,16-pentaaza-tetracyclo[8.6.0.0^2,^7.0^11,^1^5]hexadeca-1(10), 2,4,6,8,12,14-heptaene]	54
N-(5-{16-[4-(1-cyano-1-methylethyl)phenyl]-8,11,13,14,16-pentaazatetracyclo[8.6.0.0^2,^7.0^11,^1^5]-hexadeca-1(10), 2,4,6,8,12,14-heptaen-4-yl)}pyridin-2-yl)-2-(4-oxopiperidin-1-yl)acetamide	54
C#CC(C)(C)c1ccc(-n2c3c4cc(-c5ccc(OC)nc5)ccc4ncc3n3c(C)nnc23)cc1 [2-methoxy-5-pyridine; CH3; CH3, CH3; CN, 4-(6-methoxypyridin-3-yl)-12-methyl-16-[4-(2-methylbut-3-yn-2-yl)phenyl]8,11,13,14,16-pentaazatetracyclo[8.6.0.0^2,^7.0^11,^1^5]hexadeca-1(10),2,4,6,8,12,14-heptaene]	98
Cc1nnc2n(-c3ccc(C(C)(C)C)cc3)c3c4cc(-c5cccnc5)ccc4ncc3n12 [3-pyridine; CH3; CH3, CH3; CH3, 16-(4-tert-butylphenyl)-12-methyl-4-(pyridin-3-yl)-8,11,13,14,16-pentaazatetracyclo-[8.6.0.0^2,^7.0^11,^1^5]hexadec-1(10),2,4,6,8,12,14-heptaene]	88
CCc1nnc2n(-c3ccc(C(C)(C)C#N)cc3)c3c4cc(-c5ccc(NC(C)=O)nc5)ccc4ncc3n12 [N-(5-{(16-[4-(1-cyano-1-methylethyl)phenyl]-12-ethyl-8,11,13,14,16-pentaazatetracyclo-[8.6.0.0^2,^7.0^11,^1^5]hexadeca-1(10), 2,4,6,8,12,14-heptaen-4-yl)}pyridin-2-yl)acetamide]	72
